Structures are written as SMILES.

Data set [1] in a line: Solubility (Table S1). The settings on record: YES/NO.
The target of data set [2] is T1, ATX (Homo sapiens, UniProt Q13822). Nature of the data set: Amplex Red Lyso-phospholipase D assay, human ATX. The class given is biochemical. Details: purchased Sino Biological. The settings on record: for inhibition at 30 µM: Table S2, at 30uM, read-out: %inhibition at 30uM. The procedure: All compounds proposed were assessed for their ATX inhibitory activity in vitro using the Amplex Red assay. The Amplex Red Lyso-phospholipase D assay is a fluorometry-based assay providing a sensitive method for measuring Lyso-phospholipase D (ATX) activity in vitro. In this enzyme-coupled assay, ATX activity is monitored indirectly using 10-acetyl-3,7-dihydrophenoxazine (Amplex Red reagent), a sensitive fluorogenic probe for H2O2. ATX initially cleaves the Lysophosphatidylcholine (LPC) substrate to yield choline and Lysophosphatidic acid (LPA), while choline gets subsequently oxidized by choline oxidase to betaine and H2O2. Lastly, H2O2, in the presence of horseradish peroxidase (HRP), reacts with Amplex Red reagent in a 1:1 stoichiometry to generate the highly fluorescent product resorufin.
The inhibition assay was performed as previously described with some modifications in order to accommodate the newly-discovered lag phase in ATX kinetics. To this end, and in order to provide adequate time to the hydrolysis of LPC by ATX, we added a 30min incubation period between ATX, inhibitors and LPC. Briefly, 2 μL of different concentrations of inhibitors diluted in DMSO (Sigma-Aldrich, St. Louis, MO, USA) were incubated with 50 µL of ATX 8 nM (human or mouse ATX from Sino Biological), and 48 µL reaction buffer (50 mM Tris-Cl pH 8.0 from Thermo Fisher Scientific, Waltham, MA, USA and 5 mM CaCl2 from Honeywell-Fluka, Charlotte, NC, USA) in a black 96-well microplate for 15 min at 37 °C. Thence, another 50 µL of reaction buffer with 200 μM LPC substrate 16:0 (Avanti Polar Lipids Inc, Alabaster, AL, USA) ([…]) was added to the reaction mixture and incubated for 30 min at 37 °C in order for ATX to convert LPC to LPA and choline. Finally, 50 µL of working solution containing 200 μM Amplex Red (Invitrogen, Carlsbad, CA, USA), 4 U/mL HRP (Sigma-Aldrich, St. Louis, MO, USA), 0.4 U/mL choline oxidase (Sigma-Aldrich, St. Louis, MO, USA) in 50 mM Tris-HCl pH 8.0 and 5 mM CaCl2 was added to measure the produced choline. The reaction was monitored at 37 °C in a fluorescence plate reader using excitation at 530 nm and reading at 590 nm, every 5 min for 30 min. The velocity of the reaction and the remaining activity of ATX were calculated at the linear phase of the reaction and dose-response inhibition graphs were plotted with GraphPad Software (GraphPad Software, San Diego, CA, USA). […] In order to evaluate a possible effect of the compounds on the second (choline oxidase) and third (HRP) enzymes of the Amplex Red assay, we also performed the assay in the absence of ATX but in the presence of the compounds. Instead of ATX, we added choline chloride at a final concentration of 2 µM so as the second and third steps of the assay could proceed normally.

The target in data set [3] is T1, ATX. Nature of the data set: IC50 Eleanna (Table S2, method not described). The class given is biochemical. The settings on record: Table S2; read-out: IC50 Eleanna.
Where [4] appears, read: recombinant human ATX 2 nM, LPC 16:0 substrate, Amplex Red, read-out: IC50 hATX.
The mark [5] stands for this setting: in vitro IC50 (Sino hATX 2nM), Table S2, Sino hATX 2nM.

In the case of `Cc1cc(OC(=O)c2c(-c3ccccc3)noc2C)c2cc(F)ccc2n1` [BTB01297, (6-fluoro-2-methylquinolin-4-yl) 5-methyl-3-phenyl-1,2-oxazole-4-carboxylate], the Solubility result in data set [1] was “YES”. Moreover, in data set [2] (setting [4]), the IC50 is above 100 µM.
The matching figures for `C(=C1c2ccccc2-c2ccccc21)C(C=C1c2ccccc2-c2ccccc21)c1ccccc1` [BTB11132, 9-[3-(9H-fluoren-9-yliden)-2-phenylpropylidene]-9H-fluorene]: “YES” and above 100 µM.
For `N#Cc1ccc(-c2c(NC(=O)NS(=O)(=O)c3ccccc3Cl)oc(-c3ccco3)c2C#N)cc1` [CD09529, 2-[({[(2-chlorophenyl)sulphonyl]amino}carbonyl)amino]-4-cyano-3-(4-cyanophenyl)-5-(2-furyl)furan], the Solubility entry in data set [1] is on record as “YES”. Also, the half-maximal inhibitory concentration (IC50) in data set [2] (setting [4]) is above 100 µM.
The matching figures for `O=C(c1ccc(Sc2ccccc2)c([N+](=O)[O-])c1)N(Cc1ccc2c(c1)OCO2)c1ccc(F)cc1` [DSHS00944, N-(1,,3-benzodioxol-5-ylmethyl)-N-(4-fluorophenyl)-3-nitro-4-,phenylsulfanylbenzamide]: “YES” and above 100 µM.
`CCc1nc2c(C)cc(N3CCN(CC(=O)N4CC(O)C4)CC3)cn2c1N(C)c1nc(-c2ccc(F)cc2)c(C#N)s1` [GLPG1690, 2-[[2-ethyl-6-[4-[2-(3-hydroxyazetidin-1-yl)-2-oxoethyl]piperazin-1-yl]-8-methylimidazo[1,2-a]pyridin-3-yl]-methylamino]-4-(4-fluorophenyl)-1,3-thiazole-5-carbonitrile, reference compound]: the Solubility entry in data set [1] is reported as “YES”.
On the same count and under the same terms, the value for `O=C1S/C(=C\c2ccc(OCc3ccc(B(O)O)cc3)cc2)C(=O)N1Cc1ccc(F)cc1` [HA155, [4-[[4-[(Z)-[3-[(4-fluorophenyl)methyl]-2,4-dioxo-1,3-thiazolidin-5-ylidene]methyl]phenoxy]methyl]phenyl]boronic acid, reference compound] was “YES”.
Take `O=c1[nH]nc(-c2ccc(F)cc2)cc1Cc1cn(Cc2ccccc2)c2ccc([N+](=O)[O-])cc12` [HTS01403, 4-[(1-benzyl-5-nitro-1H-indol-3-yl)methyl]-6-(4-fluorophenyl)pyridazin-3(2H)-one]: in data set [1], the Solubility entry was “YES”. In addition, the IC50 in data set [2] (setting [4]) was above 100 µM.
The matching figures for `O=C(CSc1nc2cc(Cl)ccc2o1)Nc1cc(C(F)(F)F)cc(C(F)(F)F)c1` [HTS01561, N-[3,5-bis(trifluoromethyl)phenyl]-2-[(5-chloro-1,3-benzoxazol-2-yl)thio]acetamide]: “YES” and above 100 µM.
Take `O=S(=O)(Nc1cc(C(F)(F)F)ccc1N1CCc2ccccc2C1)c1cccc2nonc12` [HTS01790, N-[2-(3,4-dihydro-1H-isoquinolin-2-yl)-5-(trifluoromethyl)phenyl]-2,1,,3-benzoxadiazole-7-sulfonamide]: the Solubility result in data set [1] is listed as “YES”. For the same compound, the IC50 in data set [2] (setting [4]) is above 100 µM.
For the compound `O=C1Cc2cc(C(=O)CSc3nc4ccccc4n3-c3ccccc3)ccc2N1` [SC-12, 5-[2-(1-phenylbenzimidazol-2-yl)sulfanylacetyl]-1,3-dihydroindol-2-one], the 50% inhibitory concentration (IC50) is 0.9 µM in data set [3] and above 30 µM in data set [2] (setting [5]).
On to `O=C(Nc1c2c(nn1-c1ccc(F)cc1)C[S+]([O-])C2)c1cccc2ccccc12` (stereo not drawn) [SC-14, N-[2-(4-fluorophenyl)-5-oxo-4,6-dihydrothieno[3,4-c]pyrazol-3-yl]naphthalene-1-carboxamide], for which the figures for the concentration for half-maximal inhibition (IC50) in data set [3] and in data set [2] (setting [5]) were above 5 µM and above 30 µM, respectively. Also, the inhibition at 30 µM in data set [2] was 9.6%.
Regarding `Cc1ccc(-n2nc3c(c2NC(=O)c2cccc4ccccc24)C[S+]([O-])C3)cc1` (stereo not drawn) [SC-16, N-[2-(4-methylphenyl)-5-oxo-4,6-dihydrothieno[3,4-c]pyrazol-3-yl]naphthalene-1-carboxamide], the figures for the IC50 in data set [3] and in data set [2] (setting [5]) were above 5 µM and above 30 µM, respectively. Besides, the inhibition at 30 µM in data set [2] turned out to be 13.6%.
Turning to `Cc1ccc(S(=O)(=O)n2cc(C=C3C(=O)Nc4ccccc43)c3ccccc32)cc1` [SC-18, 3-[[1-(4-methylphenyl)sulfonylindol-3-yl]methylidene]-1H-indol-2-one], the IC50 in data set [3] worked out at 5 µM; in data set [2] (setting [5]), 30 µM. For the same compound, the inhibition at 30 µM in data set [2] came out at 55.3%.
Turning to `O=C(Nc1c2c(nn1-c1ccc(F)cc1)C[S+]([O-])C2)c1ccc2ccccc2c1` (stereo not drawn) [SC-24, N-[2-(4-fluorophenyl)-5-oxo-4,6-dihydrothieno[3,4-c]pyrazol-3-yl]naphthalene-2-carboxamide], the IC50 was 4 µM in data set [3] and above 30 µM in data set [2] (setting [5]). Besides, the inhibition at 30 µM in data set [2] came to 18.2%.
Consider `Cc1ccc(S(=O)(=O)N2CCN3C(=O)c4ccccc4C32c2ccccc2)cc1` (stereo not drawn) [SC-26, 1-(4-methylphenyl)sulfonyl-9b-phenyl-2,3-dihydroimidazo[2,1-a]isoindol-5-one], for which the 50% inhibitory concentration (IC50) was above 5 µM in data set [3] and above 30 µM in data set [2] (setting [5]).
On to `Cc1ccc(-n2nc3c(c2NC(=O)c2ccc4ccccc4c2)C[S+]([O-])C3)cc1` (stereo not drawn) [SC-27, N-[2-(4-methylphenyl)-5-oxo-4,6-dihydrothieno[3,4-c]pyrazol-3-yl]naphthalene-2-carboxamide], for which the IC50 was above 5 µM in data set [3] and above 30 µM in data set [2] (setting [5]).
The matching figures for `Cc1nc(-c2ccc(NS(=O)(=O)c3ccc4c5c(cccc35)CC4)cc2)cs1` [SC-30, N-[4-(2-methyl-1,3-thiazol-4-yl)phenyl]-1,2-dihydroacenaphthylene-5-sulfonamide]: above 5 µM and above 30 µM.
`O=C(Cn1cnc2ccsc2c1=O)c1c(-c2ccccc2)[nH]c2ccccc12` [SC-34, 3-[2-oxo-2-(2-phenyl-1H-indol-3-yl)ethyl]thieno[3,2-d]pyrimidin-4-one]: the IC50 was 5 µM in data set [3] and above 30 µM in data set [2] (setting [5]). Moreover, the inhibition at 30 µM in data set [2] turned out to be 16%.
On to `CC12N[N+](c3ccccc3)=C(c3ccccc3)C1S(=O)(=O)c1ccccc12` (stereo not drawn) [SC-36, 8b-methyl-2,3-diphenyl-1,3a-dihydro-[1]benzothiolo[3,2-c]pyrazol-2-ium 4,4-dioxide], for which the IC50 in data set [3] was above 5 µM; in data set [2] (read-out: in vitro IC50 (Sino hATX 2nM), Table S2, Sino hATX 2nM), above 30 µM.
In the case of `Cc1ncc(-c2ccc(NS(=O)(=O)c3ccc4c5c(cccc35)CC4)cc2)o1` [SC-37, N-[4-(2-methyl-1,3-oxazol-5-yl)phenyl]-1,2-dihydroacenaphthylene-5-sulfonamide], the figures for the concentration for half-maximal inhibition (IC50) in data set [3] and in data set [2] (setting [5]) were above 5 µM and above 30 µM, respectively.
Turning to `CN1C(=O)C(=NNC(=O)c2cc(-c3cccs3)nc3ccccc23)c2ccccc21` [SC-40, N-[(1-methyl-2-oxoindol-3-ylidene)amino]-2-thiophen-2-ylquinoline-4-carboxamide], the concentration for half-maximal inhibition (IC50) in data set [3] is above 5 µM; in data set [2] (setting [5]), above 30 µM.
The matching figures for `O=C1c2ccccc2-c2ccc(C(=O)N3CCN(C(=O)c4cccs4)CC3)cc21` [SC-42, 2-[4-(thiophene-2-carbonyl)piperazine-1-carbonyl]fluoren-9-one]: 4.53 µM and above 30 µM.
The matching figures for `Cc1ccc(-n2nc3c(c2NC(=O)c2cccc4ccccc24)CS(=O)(=O)C3)cc1` [SC-43, N-[2-(4-methylphenyl)-5,5-dioxo-4,6-dihydrothieno[3,4-c]pyrazol-3-yl]naphthalene-1-carboxamide]: above 5 µM and above 30 µM.
The matching figures for `O=C1NC(=O)C(=Cc2cn(Cc3ccc4ccccc4c3)c3ccccc23)S1` [SC-45, 5-[[1-(naphthalen-2-ylmethyl)indol-3-yl]methylidene]-1,3-thiazolidine-2,4-dione]: above 5 µM and above 30 µM.
Take `Cc1ccccc1-n1nc2c(c1NC(=O)c1ccc3ccccc3c1)CS(=O)(=O)C2` [SC-47, N-[2-(2-methylphenyl)-5,5-dioxo-4,6-dihydrothieno[3,4-c]pyrazol-3-yl]naphthalene-2-carboxamide]: the IC50 in data set [3] was 3.4 µM; in data set [2] (setting [5]), above 30 µM. Further, in data set [2], the inhibition at 30 µM came out at 38.6%.

The term IC50 denotes the concentration at which inhibition is half-maximal. The term inhibition denotes the drop in the measured response relative to a control, in per cent.

For the origin of these results see publication PMC7582705, “Structure-Based Discovery of Novel Chemical Classes of Autotaxin Inhibitors” (International Journal of Molecular Sciences, 2020).
